Tests used:
[1] = system: CD8+ T lymphocytes in the liver tumor microenvironment; test: Relative amount of CD8+ T lymphocytes in the tumor microenvironment by flow cytometry; type: in vivo, C57BL/6 mice; conditions: for increase of relative amount of CD8+ T lymphocytes in the liver tumor microenvironment: one typical mouse per group, FIG. 6
From the text: Experimental animals: Twenty-seven C57BL/6 mice aged 3 to 4 weeks old in good mental state were purchased from the Experimental Animal Center of Sun Yat-sen University. The mice were randomly divided into 3 groups, nine mice for each group, and the 3 groups were a control group (the first group), a pantothenic acid group (the second group) and a Vitamin E control group (the third group) respectively. The 3 groups of mice were continually administered by gavage with pure water, pantothenic acid (at a concentration of 0.02 g/ml, purchased from the Sigma official website) and Vitamin E (at a concentration of 0.02 g/ml, purchased from the Sigma official website) for 3 to 4 weeks, respectively. After the mouse tumor (liver cancer) cells HEPA1-6 grew at logarithmic phase, they were digested with trypsin, and culture medium was neutralized. After centrifugation, the cells were collected, washed twice with DPBS to remove residual serum. Finally, the cells were redissolved with DPBS. After cell counting was completed, each mouse was subcutaneously inoculated with 10^6 cells into right axilla and continually treated by gavage, respectively, and the tumor-bearing mice were killed after 2 to 3 weeks. After dissection, the sizes of the subcutaneously transplanted tumors were measured, and the tumor cells were collected in situ. A relative amount of the CD8^+ T lymphocytes in the tumor microenvironment was detected and analyzed by flow cytometry.

[2] = system: liver cancer cells (HEPA1-6) transplanted tumors; test: Pantothenic acid for tumor prevention and treatment in mice: size of subcutaneously transplanted tumors; type: in vivo, C57BL/6 mice; conditions: gavage 0.02 g/ml; HEPA1-6 subcutaneous tumor; p<0.01; FIG. 4 and FIG. 5
From the text: FIG. 3 is a schematic diagram of the experimental procedure for detecting pantothenic acid, the metabolite of the intestinal bacteria to enhance an accumulation of CD8^+ cytotoxic T cells in the tumor microenvironment and to treat tumors in a mouse model of liver cancer. That is, an experimental procedure of administering pantothenic acid to mice subcutaneously transplanted with liver cancer cells (HEPA1-6). The time is expressed in days (Day, d) for administering pantothenic acid or for transplanting tumor cells.
Experimental animals: Twenty-seven C57BL/6 mice aged 3 to 4 weeks old in good mental state were purchased from the Experimental Animal Center of Sun Yat-sen University. The mice were randomly divided into 3 groups, nine mice for each group, and the 3 groups were a control group (the first group), a pantothenic acid group (the second group) and a Vitamin E control group (the third group) respectively. […] After dissection, the sizes of the subcutaneously transplanted tumors were measured, and the tumor cells were collected in situ. A relative amount of the CD8^+ T lymphocytes in the tumor microenvironment was detected and analyzed by flow cytometry.

## CC(C)(CO)[C@@H](O)C(=O)NCCC(=O)O [pantothenic acid]
[1]; compared with pure water control group and Vitamin E control group, statistical analysis, p<0.05, FIG. 7
  relative amount of CD8+ T lymphocytes in the tumor microenvironment (percentage of total cells): significantly increases
[1]; compared with the Vitamin E control group
  increase of relative amount of CD8+ T lymphocytes in the liver tumor microenvironment: more than 3 times
[1]; compared with the pure water control group
  increase of relative amount of CD8+ T lymphocytes in the liver tumor microenvironment: more than 7 times
[2]
  reduction of size of liver cancer cell transplanted tumors: about 80%

— US20220202754A1, “USES OF PANTOTHENIC ACID IN PREPARATION OF A COMPOSITION FOR TREATING AND/OR PREVENTING TUMORS” (REVAISSANT (SHENZHEN) BIOSCIENCES CO., LTD., priority 2019, published 2022)
